Test results from US9243031B2, “Complex-forming compounds” (priority 2011, dated 2016).
“Also recorded” adds a separate entry of the source. Like-named read-outs stand apart in the source and are kept apart here.

How the values were obtained:
[1] = Measurement of metal selectivity by HPLC-MS (ESI), ratio of metal adduct to Ca adduct signals; format: binding
[2] = Quantum chemical calculation of the Ca2+ ion changing process (Gaussian09, B3LYP/LANL2DZ); details: ratio of calculated RH values
Procedure: Since there is no appropriate analytical method for the measurement of the complex-forming properties of these compounds with sufficient accuracy, we determined the complex-forming constants compared to the calcium ion complexes with high level quantum chemical calculations. The calculations were performed using Gaussian09 software on B3LYP/LANL2DZ theoretical level. In course of the calculations frequency calculations were also performed from which thermodynamic data were also determined.
The ion binding capabilities to each of ions are compared to the calcium binding capabilities, which is shown by RH (relative complex-forming tendency).
The thermodynamic data (ΔE, ΔH, ΔG) were calculated with mathematical equations from the values of E, H and G counted on quantum chemical basis: ΔE[complex-M]=E[complex-M]+E[CaCl2.6H2O]−{E[complex-Ca]+E[MCl2.6H2O]} ΔH[complex-M]=H[complex-M]+H[CaCl2.6H2O]−{H[complex-Ca]+H[MCl2.6H2O]} ΔG[complex-M]=G[complex-M]+G[CaCl2.6H2O]−{G[complex-Ca]+G[MCl2.6H2O]}
The relative complex-forming constant (RG) compared to the Ca^2+ ion can be calculated with the following equation: […]
Since the quotient formation expectedly causes a loss of entropy coefficients, the following equation was used which is more practical due to the fluctuation of the calculated entropy coefficient: […]

[3] = Measurement of metal selectivity by HPLC-MS (ESI), ratio of metal adduct to Ca adduct signals; format: binding; remark: listed apart in the source
Procedure: (§1) Therefore, the measurements of Ca—Sr ionselectivity were carried out with an AGILENT 6140 Octapol MS (mass spectrometer) equipped with an AGILENT 1200 HPLC. The ionization was carried out by using an electron-spray (ESI, MM-FS) soft ionization equipment with positive detection. During the measurements different complex-forming compounds of the formulas (P-1), P-2), (P-3) prepared with the synthesizes shown above and decorporol of the formula (XI) were added to stock solutions, then the solutions were measured with mass spectrometry.
(§2) The measuring of Ca—Sr ionselectivity was carried out with an AGILENT 6140 Octapol MS (mass spectrometer) equipped with an AGILENT 1200 HPLC. The ionization was carried out by using an electron-spray (ESI, MM-FS) soft ionization equipment with positive detection. The used field strength was 10000V, the spray temperature 220° C., Fragmentor: 70; Treshold: 500, stepsize 0.2 Da; Ionization Switch Delay: 0 ms; Polarity Switch Delay 300 ms; Gain: 1:0; Mass range: 100-1200 Da. Nitrogen gas was used. These parameters were obtained by optimization. The used HPLC column was a 30 mm long WATERS ACQUITY UPLC column with an inner diameter of 2.1 mm and filled with C18 packing of 1.8 um. The amounts of the injected samples were changed between 2-10 ul. The eluents used due to the appropriate ionization were as follows:
(§3) Eluent A: 0.395 g of NH4HCO3 dissolved in 1 l water+50 ml MeCN.
(§4) Solution A: 0.1 M Ca ion stock solution: 222.1 mg (2 mmol) of anhydrous CaCl2 are dissolved in 20 ml of distilled water.
Solution B: 0.1 M Sr ion stock solution: 533.5 mg (2 mmol) of SrCl2.6H2O are dissolved in 20 ml of distilled water.
(§5) 100 μl of A stock solution and to 100 μl of I, II, III or IV solutions 100 μl of B-G solution are added according to the Table below and the amount of the thus obtained samples are completed to 1 ml, then injected into the HPLC.
(§6) A minimal retention time of 0.75 minutes was registered in case of the tests with Decorporol. We registered the free complex-forming compound (M+H+DA), the calcium adduct (M−H^++38 Da) and the strontium complex (M−H^++86 Da) in every case. Due to the very similar chemical properties of the Ca ion and the strontium ion it is presumable that they behave similarly during ionization, therefore we have determined the selectivity compared to Ca ion by the ratio of the average mass spectrometry signals of Ca adducts to Sr adducts. In case of the measurements of the physiologically important and toxic metal ions the compound of formula (P-3) was used. The signal of the corresponding metal ion adduct was always well separated from the signal of the mother compound and from the signal of the Ca-adduct.

[4] = as above; format: binding; remark: listed apart in the source
Procedure: as §1
The measuring of Ca—Sr ionselectivity was carried out with an AGILENT 6140 Octapol MS (mass spectrometer) equipped with an AGILENT 1200 HPLC. The ionization was carried out by using an electron-spray (ESI, MM-FS) soft ionization equipment with positive detection. The used field strength was 10000V, the spray temperature 220° C., Fragmentor: 70; Treshold: 500, stepsize 0.2 Da; Ionization Switch Delay: 0 ms; Polarity Switch Delay 300 ms; Gain: 1:0; Mass range: 100-1200 Da. […]
A minimal retention time of 0.75 minutes was registered in case of the tests with Decorporol. […] Due to the very similar chemical properties of the Ca ion and the strontium ion it is presumable that they behave similarly during ionization, therefore we have determined the selectivity compared to Ca ion by the ratio of the average mass spectrometry signals of Ca adducts to Sr adducts. […]

[5] = as above; format: binding; details: for binding of Cu ion (in words): HPLC-MS
Procedure: as §1, §2, §3, §4
Solution C: 0.1 M Cu ion stock solution: 500.0 mg (2 mmol) of CuSO4.5H2O are dissolved in 20 ml of distilled water.
as §5, §6

[6] = as above; format: binding; details: for binding of Pb ion / palladium (in words): HPLC-MS; for M^2+/Ca^2+ rate / M^2+/Ca^2+ rate, peak of decarboxylated fragment (in brackets): M = Pd
Procedure: as §1, §2, §3, §4
Solution F: 0.1 M Pb ion stock solution: 217.0 mg […] of Pb(OOCCF3)2 are dissolved in 5 ml distilled water.
as §5, §6

[7] = as above; format: binding; details: for binding of Zn ion (in words): HPLC-MS
Procedure: as §1, §2, §3, §4
Solution D: 0.1 M Zn ion stock solution: 272.5 mg (2 mmol) of ZnCl2 are dissolved in 20 ml of distilled water.
as §5, §6

[8] = Decarboxylation observed during the HPLC-MS measurements; format: physicochemical
Procedure: The decarboxylation, which is characteristic of decorporol, was shown also during the measurements.
as §2, §6
This process is well-known and leads to slow degradation of decorporol. The mono-decarboxylated and the double-decarboxylated derivatives are the main contaminants of decorporol and their solubility is very low in water, therefore beyond a certain concentration the complexes could precipitate.

[9] = Measurement of metal selectivity by HPLC-MS (ESI), ratio of metal adduct to Ca adduct signals; format: binding; details: for binding of Sn ion (in words): HPLC-MS; for M^2+/Ca^2+ rate: M = Sn
Procedure: as §1, §2, §3, §4
Solution E: 0.1 M Sn ion stock solution: 379.6 mg (2 mmol) of SnCl2 are dissolved in 20 ml of distillated water.
as §5, §6

[10] = mice, compound added intravenously, calcium remained; cited from earlier work
[11] = during HPLC-MS measurements with metal ions

Compound	Sr^2+/Ca^2+ rate [1]	strontium binding affinity compared to the compound of formula (XI) [2]	MS peak of the free complex-forming compound compared with the peak of its Sr complex [3]	binding of strontium ion (in words) [3]	binding of Cu ion (in words) [5]	M^2+/Ca^2+ rate ([5]; M = Cu)	binding of Pb ion / palladium (in words) [6]	M^2+/Ca^2+ rate [6]	binding of Zn ion (in words) [7]	M^2+/Ca^2+ rate ([7]; M = Zn)	decarboxylation [8, 11]	binding of Sn ion (in words) [9]	M^2+/Ca^2+ rate [9]	also measured
2-(2-{16-[(1,2-Dicarboxy-ethylcarbamoil)-methyl]-1,4,10,13-tetraoxa-7,16-diaza-cyclooctadec-7-yl}-acetylamino)-succinic acid [(P-2)]	1.4	approximately 4 fold	significantly lower; also recorded: considerably smaller	stronger than Ca ion	–	–	–	–	–	–	–	–	–	–
O=C(CN1CCOCCOCCN(CC(=O)NC(C(=O)O)C(=O)O)CCOCCOCC1)NC(C(=O)O)C(=O)O [(P-1), 2-(2-{16-[(Dicarboxymethyl-carbamoyl)-methyl]-1,4,10,13-tetraoxa-7,16-diaza-cyclooctadec-7-yl}-acetiyamino)-malonic acid]	1.25	more than 4 fold	significantly lower; also recorded: considerably smaller	–	–	–	–	–	–	–	–	–	–	–
O=C(O)CCC(NC(=O)CN1CCOCCOCCN(CC(=O)NC(CCC(=O)O)C(=O)O)CCOCCOCC1)C(=O)O (stereo not drawn) [(P-3), 2-(2-{16-[(1,3-Dicarboxy-propylcarbamoyl)-methyl]-1,4,10,13-tetraoxa-7,16-diaza-cyclooctadec-7-yl}-acetylamino)-pentanedioic acid]	1.5	–	significantly lower; also recorded: considerably smaller	strongest; also recorded: stronger than Ca ion	a little stronger than Ca ion; also recorded: slightly binds	1.1	very strongly	29	does not bind	ca. 0	does not decarboxylate	very strongly	100	binding of Fe ion (in words) ([4]; HPLC-MS): does not bind; M^2+/Ca^2+ rate ([4]; M = Fe): ca. 0
O=C(O)C(C(=O)O)N1CCOCCOCCN(C(C(=O)O)C(=O)O)CCOCCOCC1 [Decorporol, (7,16-bis-malonate)-1,4,10,13-tetraoxa-7,16-diazacyclooctadecane-bis-malonic acid]	1.2	–	–	–	a bit stronger than the compound of the formula of (P-3)	1.2	significantly less	20	stronger than Ca	8	significant decarboxylation	significantly less	22	M^2+/Ca^2+ rate, peak of decarboxylated fragment (in brackets) ([5]; M = Cu): 1.5; M^2+/Ca^2+ rate, peak of decarboxylated fragment (in brackets) ([6]; first bracketed peak): 29; M^2+/Ca^2+ rate, peak of decarboxylated fragment (in brackets) ([6]; second bracketed peak): 40; binding of Zn ion (in words) ([7]; listed as decorporol): Good binding; also recorded: stronger than Ca ions; M^2+/Ca^2+ rate, peak of decarboxylated fragment (in brackets) ([7]; M = Zn): 4; MS peak of the free complex-forming compound compared with the peak of its Sr complex ([3]; listed as decorporol): worse; also recorded: lower; decarboxylation ([8]; in case of Pb ion): very strong decarboxylation process; removal of strontium from the body [10]: removed selectively
